Measured values reported in patent US20220274935A1, “PHARMACEUTICAL COMPOSITION FOR PREVENTING OR TREATING BONE DISEASES” (INDUSTRY FOUNDATION OF CHONNAM NATIONAL UNIVERSITY, priority 2019, published 2022).

Legend:
preosteoclasts = experiment: MTT assay for cytotoxicity assessment (cell viability); format: cell-based, mouse; conditions: MCSF 30 ng/mL, concentration of 10 uM
Experimental: MTT Assay for Cytotoxicity Assessment
After treatment of preosteoclasts with 35D35 or 35D3 (=PPOA) (1-10 uM), cell viability was evaluated. Specifically, 1×10^4 cells per well were put into a 96-well plate, and only MCSF (30 ng/mL) and PPOA were cultured by day under the indicated concentration conditions. Thereafter, a cell viability assay reagent (DoGen, EZ-3000) was used with 1/10 of the volume of the medium for treatment, and then the cells were incubated at 37° C. for 30 minutes and observed at […]. […] That is, it was confirmed that there was no cytotoxicity.

[1] = tested on: osteoclast differentiation of monocytes isolated from the mouse bone marrow; experiment: Osteoclast differentiation inhibitory ability through TRAP staining and assay (RANKL-induced monocytes); format: cell-based; conditions: for degree of osteoclast differentiation by TRAP staining: treated together with RANKL, compared to other derivatives, FIG. 1
Experimental: The bone marrow of a 10-week-old female mouse was isolated from the hip bone, femur and tibia, followed by culturing the same in α-MEM medium (Gibco, 12561-056, 10% fetal bovine serum, 1% penicillin/streptomycin) containing macrophage colony stimulating factor (M-CSF, PeproTech, 315-02, 30 ng/ml) for 3 days in order to isolate only monocytes. The isolated monocytes were treated with receptor activator of nuclear factor kappa B ligand (RANKL, PeproTech, 315-11, 50 ng/ml) to induce osteoclast differentiation. During RANKL treatment, each compound (35D35, 35D5, 35D3, and 35D8) was used for treatment and the cells were cultured for 3 or 5 days so as to confirm the degree of osteoclast differentiation.
1×10^4 monocytes isolated from the mouse bone marrow were put into a 96-well plate and treated with each compound (35D35, 35D5, 35D3, and 35D8) together with RANKL, thereby confirming the effects of each compound on osteoclast differentiation ability. Using the TRAP activity assay kit (Cosmo Bio, PMC-AK04F-COS), the activity of tartrate-resistant acid phosphatase (TRAP) with increased expression during osteoclast differentiation was confirmed. […] After staining, multinuclear cells formed during osteoclast differentiation were confirmed under a microscope. Further, each well was photographed and a differentiation area ratio per total area was determined using Image J software.
Further, the effects of the 35D35 compound having excellent osteoclast production inhibitory ability with respect to osteoclast differentiation period was investigated. Specifically, BMM was divided into 5 groups (Ctrl, Period I to IV), and cultured for 4 days in a culture medium containing 30 ng/mL M-CSF and 50 ng/mL RANKL. BMMs in Period I to IV groups were exposed to 1 μM 35D35 for 24 hours on different days, respectively. After 4 days, the cells of each group were fixed, followed by TRAP staining, and then, the presence of osteoclasts was confirmed.

[2] = tested on: RANKL-induced F-actin belt formation in BMM; experiment: F-actin ring (belt) formation ability of differentiated osteoclasts; format: cell-based, mouse; conditions: for inhibition of RANKL-induced F-actin belt formation: FIG. 5
Experimental: In order to confirm the activity of differentiated osteoclasts, F-actin ring formation ability was measured. Specifically, BMM was seeded on a 12 mm cover glass with or without compounds (35D3: 6 μM, 35D5 and 35D35: 2 μM), followed by M-CSF and LANKL treatment. After the osteoclasts were formed in the control, the osteoclasts were fixed in 4.0% paraformaldehyde for 15 minutes, and then incubated in 5% FBS and blocked for about 60 minutes. After washing with PBS, rhodamine-conjugated phalloidin (1:40) was added to each well to visualize a F-actin belt. After 20 minutes, the cells were incubated along with a DAPI (1:5000) solution for 5 minutes. After washing three times with PBS, cells were observed using a fluorescence microscope.
A F-actin size was measured using Image J.

[3] = tested on: bone resorption ability of osteoclasts (BMM); experiment: Bone resorption assay kit (fluoresceinamine-labeled calcium phosphate plate); format: cell-based, mouse; conditions: 0.5 uM, 6 days, compared to control cells not treated (Ctrl); FIG. 7
Experimental: In addition, the bone resorption ability of 35D35 was measured using a bone resorption assay kit (Cosmo Bio, CSR-BRA). Specifically, BMM was seeded on a fluoresceinamine-labeled calcium phosphate plate, followed by 35D35 treatment with various doses. After 6 days, a fluorescence intensity was measured at absorption and emission wavelengths of 485 nm and 535 nm, respectively, using a fluorescent reader. Further, a resorption pit area was calculated using Image J. As a result, it was confirmed that the bone resorption ability was reduced by about 10% in the cells treated with 0.5 uM of 35D35, as compared to the control cells not treated with the compound (Ctrl) (see FIG. 7, scale bar=200 μm, “Con”=M-CSF+RANKL treatment group, “M”=M-CSF treatment group).

[4] = tested on: osteoclast-specific genes AcP5 (TRAP), NFATc1, DC-STAMP, ATP6v0d2, MMP9 and CTSK; experiment: RT-PCR of osteoclast-specific gene mRNA expression; format: cell-based, mouse; conditions: 1 μM, compared to the control not treated (Ctrl); FIG. 8
Experimental: (§1) In order to confirm the expression degree of the osteoclast-specific gene, an mRNA expression level was measured by RT-PCR in cells treated with 35D35 (1 μM) and 35D3 (6 μM) compounds, respectively. RNA was isolated from cells differentiated into osteoclasts using an RNA extraction kit, and cDNA was synthesized from 0.5 μg of RNA, which was quantified through a spectrophotometer, using a reverse transcriptase (Takara, RR037 A). Thereafter, QRT-PCR was performed using cDNA synthesized by QuantStudio 3 real-time PCR system (Applied Biosystems). After treating the cells with lysates, immunoblotting was conducted with an anti-Ctsk antibody. At this time, β-actin was used as a loading control.

[5] = tested on: Ctsk protein expression in osteoclasts; experiment: Immunoblotting with anti-Ctsk antibody; format: cell-based, mouse; conditions: 35D35 1 μM compared to 35D3 6 μM; FIG. 9
Experimental: as §1

[6] = tested on: hBMP2-induced osteoblast differentiation of precursor cells from mouse skull; experiment: ALP staining for analysis of osteoblast differentiation ability; format: cell-based, C57BL/6J mouse; conditions: hBMP2 100 ng/ml, 7 days; FIG. 10
Experimental: After collecting cells from C57BL/6J mouse calvara at the age of 3 days, the cells were seeded on a 96-well plate in an amount of 4×10^3 cells per well, and then treated with 100 ng/ml of hBMP2 as a differentiation inducer. Simultaneously with the differentiation inducer treatment, the cells were treated with the 35D35 compound and cultured for 7 days, followed by ALP staining to assess differentiation influence. Specific experimental methods and results are as follows.
Precursor cells isolated from the mouse skull were treated with hBMP2 (Bone morphogenic protein 2, Sino biological, 10426-HNAE, 100 ng/ml) to induce differentiation into osteoblasts. Differentiated osteoblasts could be discriminated through alkaline phosphatase (ALP) staining as an osteoblast-specific protein. When the progenitor cells were treated with hBMP2, each of the 35D35 compounds was also used for treatment, followed by culturing the cells for 7 days while changing the medium every 2 to 3 days. […]
After discarding the ethanol, the remaining product was washed with HBSS, followed by adding a NBT solution (Sigma, B1911) in an amount of 100 μl per well and staining for 15 minutes. […] After ALP staining, a degree of color development was measured using Image J software, and then graphed for comparison.

[7] = tested on: ovariectomized mouse model (OVX); experiment: Ovariectomized (OVX) mouse osteoporosis model, tibia micro-computed tomography; format: in vivo; conditions: OVX mice, intraperitoneal once every two days, after 4 weeks, microcomputer tomography; FIGS. 11 to 14
Experimental: An ovariectomized mouse model (OVX, ovariectomized mouse) with osteoporosis due to estrogen deficiency after ovariectomy in 8-week-old female mouse were prepared. Compounds (35D35, 35D5, and 35D3), respectively, were injected intraperitoneally once every two days to the ovariectomized mouse model. After 4 weeks, the tibia of each mouse was analyzed for bone density by microcomputer tomography.
FIGS. 11 to 14 show the micro-computed tomography results (Sham: the control in which the ovaries were not removed) and graphs for analysis of the micro-computed tomography results with regard to the tibia of the mouse models (*P<0.05, **P<0.01, and ***P<0.001 vs. the control, OVX. BMD: trabecular bone mineral density).

[8] = tested on: osteoclast differentiation of monocytes isolated from the mouse bone marrow; experiment: Osteoclast differentiation inhibitory ability of 35D3 (PPOA) through TRAP staining and analysis; format: cell-based; conditions: 3 μM, compared to group in which osteoclasts were differentiated normally
Experimental: The bone marrow of a 12-week-old female mouse was isolated from the hip bone, femur and tibia, followed by culturing the same in α-MEM medium (Gibco, 12561-056, 10% fetal bovine serum, 1% penicillin/streptomycin) containing macrophage colony stimulating factor (M-CSF, PeproTech, cat #315-02, 30 ng/ml) for 3 days in order to isolate only monocytes. The isolated monocytes were treated with RANKL (PeproTech, cat #315-11, 50 ng/ml) to induce osteoclast differentiation. Then, 35D3 (PPOA) was also used for treatment, followed by culturing the cells for 3 days or 5 days.
1×10^4 monocytes isolated from the mouse bone marrow were put into a 96-well plate and treated with RANKL to confirm the effect of 35D3 (PPOA) (3 μM) on osteoclast differentiation ability.
The activity of tartrate-resistant acid phosphatase (TRAP), which has increased expression during osteoclast differentiation, was confirmed using a TRAP activity assay kit (Sigma-Aldrich, 387A-1kt), which is shown in FIG. 16.
After staining, the multinuclear cells formed during osteoclast differentiation were observed under a microscope, and 12 images per well were photographed and combined into one well image, and a differentiation area ratio per total area was confirmed using Image J software. The differentiation area ratio per total area is shown in A of FIG. 17, and the area of TRAP-positive cells (nuclear number >3) was compared with DMSO (100%) and presented as a relative value.
Further, the number of differentiated osteoclasts was counted and determined, and this was shown in B of FIG. 17, and cells in which the number of cell nuclei contained in the differentiated osteoclasts is in the range of 3-5, 6-10, 11-20, and 21 or more, were classified and shown in C of FIG. 17.

[9] = tested on: F-actin formation in mouse bone marrow cells; experiment: F-actin staining for differentiation into multinuclear cells, 35D3 (PPOA); format: cell-based; conditions: 6 uM, cultured 4 to 5 days; FIG. 18
Experimental: In order to determine the activity of differentiated osteoclasts, an ability of differentiating into multinuclear cells was measured through F-actin staining. 5×10^4 mouse bone marrow cells per well was put into a 24-well plate in which glass coated with L-Lysine was placed (Corning, 354085). At the same time, the cells were treated with 6 uM of 35D3 (PPOA) and then cultured for 4 to 5 days. The differentiated cells were fixed with 4% formaldehyde for 10 minutes and washed with PBS. For an antigen-antibody reaction, the cells were subjected to a reaction in 0.1% Triton-PBS for 20 minutes, followed by a reaction with 1% BSA for 1 hour. The F-actin antibody (Thermo Fisher Scientific, A12379) was reacted for 1 hour and then washed. Cell nuclei were stained through DAPI (4′,6-Diamidino-2-Phenylindole, Dilactate, Thermo Fisher Scientific, D3571) staining, and then, photographed under a microscope. As a result, it was confirmed that the size of F-actin was different depending on the presence or absence of 35D3 (PPOA) treatment (see FIG. 18).

[10] = tested on: bone resorption ability of osteoclasts (mouse bone marrow cells); experiment: Bone resorption assay kit, 35D3 (PPOA); format: cell-based; conditions: exposure to 3, 6, and 10 μM; FIG. 19
Experimental: Further, the bone resorption ability was confirmed using a bone resorption assay kit (Cosmo Bio, CSR-BRA). Mouse bone marrow cells were seeded on a bone resorption assay plate 48 (2×10^4 cells/well) containing 30 ng/Ml of M-CSF. […] The next day, the culture supernatant from the cells was collected on a 96-well black polypropylene micro-well plate (Thermo Fisher Scientific Nunc, Waltham, Md., USA). After mixing 50 μL of 0.1 N of NaOH, fluorescence intensity was measured with a fluorescence plate reader (Molecular Devices, San Jose, Calif., USA-model: SpectraMax i3x); and the excitation and emission wavelengths were […] and 535 nm, respectively. The absorption area was calculated in consideration of 10 randomly selected pictures per well taken at 10 magnification using Image J software (https://imagej.nih.gov/ij).

Compound | cytotoxicity (cell viability, apoptosis effects) (preosteoclasts) | osteoclast differentiation by exposure period (TRAP staining) ([1]; 1 μM for 24 hours on different days, 4 days culture with M-CSF and RANKL, exposure in initial 24 hours, FIG. 4) | osteoclast differentiation area ratio per total area (TRAP staining, Image J) ([1]; concentration of 0.5 uM, FIG. 2) | degree of osteoclast differentiation by TRAP staining [1] | decrease of F-actin ring formation ability ([2]; 0.5 uM, F-actin size by Image J, FIG. 6) [%] | inhibition of RANKL-induced F-actin belt formation ([2]; 2 μM) | reduction of bone resorption ability [3] | amount of mRNA expression of osteoclast-specific genes AcP5 (TRAP), NFATc1, DC-STAMP, ATP6v0d2, MMP9 and CTSK [4] | Ctsk protein expression [5] | effect on osteoblast differentiation (ALP staining intensity) [6] | bone density of tibia vs control (OVX) [7] | bone volume of tibia vs control (OVX) [7] | inhibition of RANKL-induced F-actin belt formation ([2]; 6 μM) | giant multinuclear cells ([8]; FIG. 17) | number of osteoclasts ([8]; FIG. 17) | differentiation area (TRAP-positive cells per total area) ([8]; FIGS. 16 and 17) | differentiation into multinuclear cells (size of F-actin) [9] | proportion of bone resorption area [10]
CCC(=O)N1CCN(c2ccccc2NC(=O)COc2ccccc2Cl)CC1 [35D35, 2-(2-chlorophenoxy)-N-[2-(4-propionyl-1-piperazinyl)phenyl]acetamide] | apoptosis effects were not exhibited | osteoclast differentiation was inhibited for the initial 24 hours | effective osteoclast differentiation inhibitory ability | superior osteoclast differentiation inhibitory effects compared to other derivatives | ≥ 50 | excellent effects of inhibiting RANKL-induced F-actin belt formation | about 10% | decreased | strongly inhibited even at a low concentration | did not affect osteoblasts | higher | higher | – | – | – | – | – | –
CC(=O)N1CCN(c2ccccc2NC(=O)COc2ccccc2Cl)CC1 [35D3, N-(2-(4-acetylpiperazin-1-yl)phenyl)-2-(2-chlorophenoxy)acetamide] | apoptosis effects were not exhibited | – | – | superior osteoclast differentiation inhibitory effects compared to other derivatives | – | – | – | – | – | – | did not exhibit higher | did not exhibit higher | excellent effects of inhibiting RANKL-induced F-actin belt formation | significantly reduced | significantly reduced | significantly reduced | could inhibit differentiation into multinuclear cells | significant decrease
